This is an account of results in patent US6492382B1, “Dried or frozen pharmaceutical preparation containing a class III antiarrhythmic compound” (AstraZeneca AB, priority 1998, dated 2002).

One series in a line: solubility in water. In kind it is physicochemical.
The nature of series [1]: stability in water solution. The class given is physicochemical. The settings on record: decomposition especially at a low pH.
For series [2] the following is noted: administered intravenously to a human patient; average; cited from earlier work.

“Also recorded” adds a separate entry of the source.

Take `CC(C)(C)OC(=O)N1CC2CC(CN(C[C@H](O)COc3ccc(C#N)cc3)C2)C1` [Compound A, 3,7-diazabicyclo[3.3.1]-nonane-3-carboxylic acid, 7-[(2S)-3-(4-cyanophenoxy)-2-hydroxypropyl]-1,1-dimethylethyl ester]: in “solubility in water”, the solubility in water result is on record as “poorly soluble in water; also recorded: low water solubility”. In addition, the “stability in water solutions” value in series [1] is “unstable in water solutions; also recorded: decomposition in water solution”.

Regarding `CCCCCCCN(CC)CCCC(O)c1ccc(NS(C)(=O)=O)cc1` (stereo not drawn) [ibutilide], the half-life of elimination result in series [2] is listed as “around 6 hours”.
